According to ChEMBL document CHEMBL2406942, “Design, synthesis and neuroprotective evaluation of novel tacrine-benzothiazole hybrids as multi-targeted compounds against Alzheimer's disease” (Bioorg Med Chem, 2013):
Activity calls are given as the source filed them. No cut-off for these calls is given here.

Tests used:
[1] = tested on: Radical scavenging activity; assay: Antioxidant activity assessed as DPPH free radical scavenging activity at 1 mM after 30 mins by spectrophotometric analysis relative to control; assay type: functional
[2] = target: Acetylcholinesterase (Electrophorus electricus, UniProt O42275)
Description: Inhibition of electric eel AChE using acetylcholine iodide as substrate preincubated for 15 mins prior to substrate addition by Ellman's method

[3] = tested on: Radical scavenging activity
Description: Antioxidant activity assessed as DPPH free radical scavenging activity after 30 mins by spectrophotometric analysis

[4] = target: Amyloid-beta precursor protein (Homo sapiens) (UniProt P05067); assay: Neuroprotective activity against amyloid beta (1 to 42)-induced toxicity in normal cognition human platelet-SH-SY5Y cell cybrid at 2.5 uM preincubated for 3 hrs by MTT assay; assay type: functional, cell-based
[5] = tested on: Radical scavenging activity; assay: Antioxidant activity assessed as DPPH free radical scavenging activity at 1.32 mM after 30 mins by spectrophotometric analysis relative to control; assay type: functional
[6] = target: Amyloid-beta precursor protein (Homo sapiens) (UniProt P05067); assay: Neuroprotective activity against amyloid beta (1 to 42)-induced toxicity in human SH-SY5Y cells at 2.5 uM preincubated for 3 hrs by MTT assay; assay type: functional, cell-based
[7] = target: Amyloid-beta precursor protein (Homo sapiens) (UniProt P05067); assay: Neuroprotective activity against amyloid beta (1 to 42)-induced toxicity in Alzheimer's disease patient platelet-SH-SY5Y cell cybrid at 2.5 uM preincubated for 3 hrs by MTT assay; assay type: functional, cell-based
[8] = target: Amyloid-beta precursor protein (Homo sapiens) (UniProt P05067); assay: Neuroprotective activity against amyloid beta (1 to 42)-induced toxicity in mild cognitive impairment patient platelet-SH-SY5Y cell cybrid at 2.5 uM preincubated for 3 hrs by MTT assay; assay type: functional, cell-based
[9] = tested on: Radical scavenging activity; assay: Antioxidant activity assessed as DPPH free radical scavenging activity at 1.22 mM after 30 mins by spectrophotometric analysis relative to control; assay type: functional

Amyloid-beta precursor protein (Homo sapiens), sequence (P05067 whole entry): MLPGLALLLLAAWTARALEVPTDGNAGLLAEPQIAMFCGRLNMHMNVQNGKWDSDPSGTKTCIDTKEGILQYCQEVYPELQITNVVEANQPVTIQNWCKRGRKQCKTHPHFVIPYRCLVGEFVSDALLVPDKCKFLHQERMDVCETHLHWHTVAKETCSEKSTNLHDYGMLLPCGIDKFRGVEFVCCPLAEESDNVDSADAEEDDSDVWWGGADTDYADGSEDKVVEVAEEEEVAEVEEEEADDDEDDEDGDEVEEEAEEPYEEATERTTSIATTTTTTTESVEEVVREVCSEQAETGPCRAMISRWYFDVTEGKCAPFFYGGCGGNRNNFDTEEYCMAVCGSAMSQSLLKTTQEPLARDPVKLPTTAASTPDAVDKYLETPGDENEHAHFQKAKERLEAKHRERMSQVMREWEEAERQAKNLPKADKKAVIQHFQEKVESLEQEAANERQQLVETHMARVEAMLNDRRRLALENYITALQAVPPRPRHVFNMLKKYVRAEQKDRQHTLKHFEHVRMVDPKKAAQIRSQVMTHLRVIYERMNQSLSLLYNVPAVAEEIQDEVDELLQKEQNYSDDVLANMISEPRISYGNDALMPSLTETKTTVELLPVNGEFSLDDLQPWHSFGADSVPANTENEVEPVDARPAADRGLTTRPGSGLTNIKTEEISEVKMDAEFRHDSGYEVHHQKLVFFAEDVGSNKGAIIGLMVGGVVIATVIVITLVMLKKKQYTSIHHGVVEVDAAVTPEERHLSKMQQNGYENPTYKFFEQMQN
Acetylcholinesterase, sequence (O42275 whole entry): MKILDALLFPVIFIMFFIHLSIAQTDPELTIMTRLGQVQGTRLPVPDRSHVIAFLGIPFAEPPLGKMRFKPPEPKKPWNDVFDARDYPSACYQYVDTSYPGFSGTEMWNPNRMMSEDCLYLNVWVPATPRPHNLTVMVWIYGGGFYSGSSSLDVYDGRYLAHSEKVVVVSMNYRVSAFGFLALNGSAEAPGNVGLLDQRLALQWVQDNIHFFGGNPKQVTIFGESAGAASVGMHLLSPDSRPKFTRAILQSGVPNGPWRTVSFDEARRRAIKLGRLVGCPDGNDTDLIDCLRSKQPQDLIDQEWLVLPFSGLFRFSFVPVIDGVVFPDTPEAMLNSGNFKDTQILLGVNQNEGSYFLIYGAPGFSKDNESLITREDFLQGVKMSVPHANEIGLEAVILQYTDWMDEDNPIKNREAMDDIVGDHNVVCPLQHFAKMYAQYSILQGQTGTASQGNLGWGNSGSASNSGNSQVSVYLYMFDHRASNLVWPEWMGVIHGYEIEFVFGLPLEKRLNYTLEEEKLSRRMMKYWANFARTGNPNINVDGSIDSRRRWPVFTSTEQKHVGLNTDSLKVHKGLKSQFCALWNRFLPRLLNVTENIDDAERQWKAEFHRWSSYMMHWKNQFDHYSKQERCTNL

Row | SMILES | Activity [1] [%] | IC50 [2] [µM] | EC50 [3] [µM] | Activity [4] | Activity [5] [%] | Activity [6] | Activity [7] | Activity [8] | Activity [9] [%]
1 | O=C(CCCCCNc1c2c(nc3ccccc13)CCCC2)Nc1ccc(Cc2nc3ccccc3s2)cc1 | 25 | 0.57 | > 1000 | – | – | – | – | – | –
2 | O=C(CCCCCNc1c2c(nc3ccccc13)CCCC2)Nc1ccc(-c2nc3ccccc3s2)cc1 | 25 | 0.34 | – | Active | 32 | – | – | – | –
3 | O=C(CCCCCNc1c2c(nc3ccccc13)CCCC2)NCCCc1nc2ccccc2s1 | 25 | 0.96 | – | – | – | Active | Active | Active | 25
4 | O=C(CCCCCNc1c2c(nc3ccccc13)CCCC2)NCCCCCc1nc2ccccc2s1 | 25 | 0.76 | > 1000 | – | – | Active | Active | Active | –
5 | O=C(CCCCCNc1c2c(nc3ccccc13)CCCC2)NCc1ccc(-c2nc3ccccc3s2)cc1 | 25 | 1.84 | > 1000 | – | – | – | – | – | –
